Key:
[1] = Glutathione reactivity of the compound in DMSO and phosphate buffer assessed as second order rate constant for adduct formation
Tetrahymena pyriformis = test: Toxicity in Tetrahymena pyriformis assessed as growth inhibition after 48 hrs
[2] = Inhibition of PI3K (unknown origin); parameters: species or system Homo sapiens
[3] = Thiol reactivity of the compound in PBS buffer assessed as pseudo-first order rate constant for adduct formation in presence of 4-nitrobenzenethiol at pH 7.4 by stop-flow spectrophotometric analysis
[4] = DTT reactivity of the compound in acetonitrile to tris-HCL buffer at pH 7.4 by NMR spectroscopic analysis
[5] = Glutathione reactivity of the compound in acetonitrile to tris-HCL buffer at pH 7.4 by NMR spectroscopic analysis
Exportin-1 = Exportin-1 (Homo sapiens, UniProt O14980); test: Inhibition of CRM1-mediated nucleocytoplasmic transport in human HeLa cells after 90 mins by immunofluorescence assay; type: cell-based
[6] = Inhibition of wild-type HCV genotype 1b protease using 5-FAM/QXL 520 as substrate after 60 to 90 mins by FRET-based assay; parameters: species or system Hepatitis C virus subtype 1b
[7] = Cysteine reactivity of the compound in CD3OD/deuterio phosphate buffer assessed as equilibrium constant for adduct formation at pH 7.4 by […] analysis
[8] = Beta-mercaptoethanol reactivity of the compound in CD3OD/deuterio phosphate buffer assessed as equilibrium constant for adduct formation at pH 7.4 by […] analysis
[9] = Glutathione reactivity of the compound in CD3OD/deuterio phosphate buffer assessed as equilibrium constant for adduct formation at pH 7.4 by […] analysis
[10] = Butanethiol reactivity of the compound in CD3OD/deuterio phosphate buffer assessed as equilibrium constant for adduct formation at pH 7.4 by […] analysis
[11] = Methanethiol reactivity of the compound in CD3OD/deuterio phosphate buffer assessed as equilibrium constant for adduct formation at pH 7.4 by […] analysis
[12] = Thiol reactivity of the compound in PBS buffer assessed as adduct formation at 100 to 200 uM at pH 7.4 by UV-visible spectroscopic analysis
[13] = Glutathione reactivity of the compound assessed as second order rate constant by 1H NMR analysis
[14] = target: Adenosylhomocysteinase (Homo sapiens) (UniProt P23526); test: Ratio of Kinact to Ki for S-adenosyl-L-homocysteine hydrolase (unknown origin)
[15] = target: Adenosylhomocysteinase (Homo sapiens) (UniProt P23526); test: Inhibition of S-adenosyl-L-homocysteine hydrolase (unknown origin)
Papain (Carica papaya) = target: T1, Papain (Carica papaya) (UniProt P00784); test: Irreversible inhibition of Carica papaya papain assessed as ratio of Kinact to Ki
T1 sequence (whole entry): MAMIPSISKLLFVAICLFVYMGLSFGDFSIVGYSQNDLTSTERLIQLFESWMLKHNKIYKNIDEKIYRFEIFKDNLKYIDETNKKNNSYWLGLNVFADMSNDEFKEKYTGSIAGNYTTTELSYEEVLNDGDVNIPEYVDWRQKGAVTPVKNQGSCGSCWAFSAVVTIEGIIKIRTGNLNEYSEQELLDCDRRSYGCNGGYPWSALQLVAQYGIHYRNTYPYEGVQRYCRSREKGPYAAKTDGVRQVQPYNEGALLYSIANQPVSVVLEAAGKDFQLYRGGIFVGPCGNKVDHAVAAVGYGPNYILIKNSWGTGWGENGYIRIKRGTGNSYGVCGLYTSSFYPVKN

[16] = Thiol reactivity of the compound assessed as equilibrium constant for adduct formation
[17] = Cysteamine reactivity of the compound in TRIS-HCL assessed as second order rate constant at 40 uM and pH 7.4 by stopped-flow assay
[18] = Cysteine reactivity of the compound assessed as second order rate constant by 1H NMR analysis
[19] = target: Sodium-dependent dopamine transporter (Rattus norvegicus, UniProt P23977); test: Inhibition of [3H]dopamine uptake at DAT in rat brain striatal synaptosomes by liquid scintillation counting analysis; type: subcellular, Striatum
Sequence of Sodium-dependent dopamine transporter (P23977 whole entry): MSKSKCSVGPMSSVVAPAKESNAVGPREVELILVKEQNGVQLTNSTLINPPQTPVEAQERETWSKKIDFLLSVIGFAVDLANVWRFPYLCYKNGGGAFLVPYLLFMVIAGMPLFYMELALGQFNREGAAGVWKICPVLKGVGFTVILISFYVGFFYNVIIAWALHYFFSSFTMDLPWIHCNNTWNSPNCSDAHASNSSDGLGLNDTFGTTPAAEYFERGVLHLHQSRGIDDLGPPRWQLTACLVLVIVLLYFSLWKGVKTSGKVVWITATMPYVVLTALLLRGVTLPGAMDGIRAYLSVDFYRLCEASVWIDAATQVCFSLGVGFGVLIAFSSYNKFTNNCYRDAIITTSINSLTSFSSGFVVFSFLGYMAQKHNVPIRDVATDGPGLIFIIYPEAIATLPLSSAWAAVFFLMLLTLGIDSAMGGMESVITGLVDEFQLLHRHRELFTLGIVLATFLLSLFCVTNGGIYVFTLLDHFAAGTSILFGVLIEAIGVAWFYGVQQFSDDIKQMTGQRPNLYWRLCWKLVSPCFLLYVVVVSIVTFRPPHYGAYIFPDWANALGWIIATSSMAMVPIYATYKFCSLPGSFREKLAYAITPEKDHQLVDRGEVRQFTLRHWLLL

Sequence of Exportin-1 (O14980 whole entry): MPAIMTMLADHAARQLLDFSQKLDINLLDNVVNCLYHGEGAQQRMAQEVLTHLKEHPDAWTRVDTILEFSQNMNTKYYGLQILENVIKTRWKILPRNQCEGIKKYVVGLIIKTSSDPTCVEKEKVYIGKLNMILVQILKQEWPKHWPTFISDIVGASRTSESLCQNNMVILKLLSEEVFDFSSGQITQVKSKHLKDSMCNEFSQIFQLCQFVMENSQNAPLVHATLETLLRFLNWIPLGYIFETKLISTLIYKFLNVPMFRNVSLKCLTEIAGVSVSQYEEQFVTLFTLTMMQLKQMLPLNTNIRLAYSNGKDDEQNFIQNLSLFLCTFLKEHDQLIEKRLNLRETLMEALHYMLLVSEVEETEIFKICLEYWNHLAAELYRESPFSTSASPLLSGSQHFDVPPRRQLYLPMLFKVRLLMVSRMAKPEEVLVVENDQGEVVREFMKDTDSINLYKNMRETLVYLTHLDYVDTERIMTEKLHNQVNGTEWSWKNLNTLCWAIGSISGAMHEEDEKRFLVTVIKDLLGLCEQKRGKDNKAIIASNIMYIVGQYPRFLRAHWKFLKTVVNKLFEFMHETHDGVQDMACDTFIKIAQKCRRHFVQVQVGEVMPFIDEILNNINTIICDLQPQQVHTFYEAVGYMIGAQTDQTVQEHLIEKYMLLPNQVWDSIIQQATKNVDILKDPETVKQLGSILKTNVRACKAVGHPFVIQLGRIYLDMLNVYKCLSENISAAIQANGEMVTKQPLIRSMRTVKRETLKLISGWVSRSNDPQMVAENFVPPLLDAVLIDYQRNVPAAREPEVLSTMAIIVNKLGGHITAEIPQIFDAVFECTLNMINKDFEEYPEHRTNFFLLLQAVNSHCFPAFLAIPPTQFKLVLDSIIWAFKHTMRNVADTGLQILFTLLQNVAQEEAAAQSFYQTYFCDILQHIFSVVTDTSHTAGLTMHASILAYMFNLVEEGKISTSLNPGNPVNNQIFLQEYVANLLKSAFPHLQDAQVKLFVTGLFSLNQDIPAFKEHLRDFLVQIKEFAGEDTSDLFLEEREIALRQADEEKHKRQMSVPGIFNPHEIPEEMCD
Sequence of Adenosylhomocysteinase (Homo sapiens) (P23526 2-432 limits assumed): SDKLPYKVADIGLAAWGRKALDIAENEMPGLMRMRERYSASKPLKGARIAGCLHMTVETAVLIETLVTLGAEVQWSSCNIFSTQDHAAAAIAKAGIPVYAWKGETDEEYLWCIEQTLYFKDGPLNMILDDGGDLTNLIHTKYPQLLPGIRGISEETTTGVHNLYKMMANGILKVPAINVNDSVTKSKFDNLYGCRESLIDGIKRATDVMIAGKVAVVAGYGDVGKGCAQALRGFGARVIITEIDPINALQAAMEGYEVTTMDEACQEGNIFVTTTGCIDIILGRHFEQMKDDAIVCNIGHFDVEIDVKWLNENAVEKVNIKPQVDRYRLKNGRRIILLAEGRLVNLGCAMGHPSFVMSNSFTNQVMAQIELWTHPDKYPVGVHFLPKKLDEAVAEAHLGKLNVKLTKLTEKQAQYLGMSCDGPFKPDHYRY

Q: With C=CC(=O)CCC as the compound, how does the K [1] read?
A: 1170 M⁻¹ s⁻¹

Q: What about the EC50 (Tetrahymena pyriformis) of the same compound?
A: 22 µM

Q: Which K [1] does the source give for CCCCCC#CC=O here?
A: 487 M⁻¹ s⁻¹

Q: What about the EC50 (Tetrahymena pyriformis) of the same compound?
A: 19 µM

Q: For COC[C@H]1OC(=O)c2coc3c2[C@@]1(C)C1=C(C3=O)[C@@H]2CCC(=O)[C@@]2(C)C[C@H]1OC(C)=O [WORTMANNIN], which IC50 [2] is on record?
A: 0.0008 µM

Q: With O=[N+]([O-])c1ccc(Sc2cc(O)ccc2O)cc1 as the compound, how does the K [3] read?
A: 1.5 ×10³ /s

Q: Which DTT second-order rate constant [4] does the source give for O=C1/C(=C/c2ccccc2)CC/C1=C\c1ccccc1 here?
A: 2.3 M⁻¹ s⁻¹

Q: What about the Activity [5] of the same compound?
A: 9.3 M⁻¹ s⁻¹

Q: For Cc1cc(O)cc(Sc2ccc([N+](=O)[O-])cc2)c1O, which K [3] is on record?
A: 3.2 ×10² /s

Q: With C=C(C)C(=O)OC as the compound, how does the K [1] read?
A: 0.072 M⁻¹ s⁻¹

Q: What about the EC50 (Tetrahymena pyriformis) of the same compound?
A: 16600 µM

Q: Which DTT second-order rate constant [4] does the source give for O=C1/C(=C/c2ccccc2O)CC/C1=C\c1ccccc1O here?
A: 29 M⁻¹ s⁻¹

Q: What about the Activity [5] of the same compound?
A: 87 M⁻¹ s⁻¹

Q: Which IC50 (Exportin-1) does the source give for CCC(=C/C(C)C)/C=C/[C@@H]1OC(=O)C=C[C@@H]1C here?
A: 0.025 µM

Q: For C=CC(=O)N[C@H](C)C(=O)N1C[C@H](Oc2nccc3ccc(Br)cc23)C[C@H]1C(=O)N[C@]1(C(=O)CS(=O)(=O)C2CC2)C[C@H]1C=C, which IC50 [6] is on record?
A: 0.004 µM

Q: For CCCCC[C@H](O)/C=C/[C@H]1C=CC(=O)[C@@H]1CCCCCCC(=O)OC, which Ke [7] is on record?
A: 6.1 to 10.8 M⁻¹

Q: What about the Ke [8] of the same compound?
A: 6.1 to 10.8 M⁻¹

Q: What about the Ke [9] of the same compound?
A: 6.1 to 10.8 M⁻¹

Q: What about the Ke [10] of the same compound?
A: 6.1 to 10.8 M⁻¹

Q: And the Ke [11]?
A: 6.1 to 10.8 M⁻¹

Q: For CS(=O)(=O)c1ccc(-c2cccc(C(SCCO)C(C#N)C(N)=O)c2)cc1 (stereo not given), which Kd [12] is on record?
A: 200 µM

Q: With O=C(/C=C/c1ccccc1O)/C=C/c1ccccc1O as the compound, how does the DTT second-order rate constant [4] read?
A: 2.5 M⁻¹ s⁻¹

Q: What about the Activity [5] of the same compound?
A: 5 M⁻¹ s⁻¹

Q: With C=CC(=O)NCC(=O)N1C[C@H](Oc2nccc3ccc(Br)cc23)C[C@H]1C(=O)N[C@]1(C(=O)CS(=O)(=O)C2CC2)C[C@H]1C=C as the compound, how does the IC50 [6] read?
A: 0.002 µM

Q: For C=C1CCOC1=O, which K [13] is on record?
A: 1.3 ×10⁻⁴ /M/s

Q: With N#CC(C(N)=O)C(SCCO)c1c[nH]cn1 (stereo not given) as the compound, how does the Kd [12] read?
A: 32800 µM

Q: Which Ratio [14] does the source give for COC1=C(OC)/C(=C/Cn2cnc3c(N)ncnc32)OC1=O here?
A: 152 M⁻¹ s⁻¹

Q: And the K [15]?
A: 84.9 M⁻¹ s⁻¹

Q: With C/C=C(\C)C[C@H](C)[C@@H](O)[C@H](C)C(=O)[C@H](C)/C=C(C)/C=C/C[C@@H](C)/C=C(\C=C\[C@H]1CC=CC(=O)O1)CC as the compound, how does the IC50 (Exportin-1) read?
A: 0.01 µM

Q: With C/C=C(\C)C=O [2-methyl-(E)-2-butenal] as the compound, how does the K [1] read?
A: 0.474 M⁻¹ s⁻¹

Q: And the EC50 (Tetrahymena pyriformis)?
A: 1380 µM

Q: With C=C[C@@H]1C[C@]1(NC(=O)[C@@H]1C[C@@H](Oc2nccc3ccc(Br)cc23)CN1C(=O)[C@@H](C)NC(=O)CC)C(=O)CS(=O)(=O)C1CC1 as the compound, how does the IC50 [6] read?
A: 1.15 µM

Q: For COC(=O)/C=C/CNC(=O)[C@H](CNC(C)=O)Cc1ccccc1, which Ratio (Papain (Carica papaya)) is on record?
A: 0.4 M⁻¹ s⁻¹

Q: For N#CC(C(N)=O)C(SCCO)c1ccc(-n2ccnc2)cc1 (stereo not given), which Kd [12] is on record?
A: 1300 µM

Q: With O=C(/C=C/c1ccccc1)/C=C/c1ccccc1 as the compound, how does the DTT second-order rate constant [4] read?
A: 0.42 M⁻¹ s⁻¹

Q: And the Activity [5]?
A: 0.15 M⁻¹ s⁻¹

Q: With CC1=CC(=O)CC1 as the compound, how does the K [1] read?
A: 0.074 M⁻¹ s⁻¹

Q: What about the Ke [16] of the same compound?
A: 0.88 M⁻¹

Q: What about the EC50 (Tetrahymena pyriformis) of the same compound?
A: 20900 µM

Q: For COc1ccc(C(=O)C(C(SCCN)c2ccc(OC)c(OC)c2)[N+](=O)[O-])c(OC)c1 (stereo not given), which K [17] is on record?
A: 750 M⁻¹ s⁻¹

Q: Which IC50 [2] does the source give for CO[C@H]1OC(=O)/C(=C\N(C2CC2)C2CC2)C2=C(O)C(=O)C3=C([C@H](OC(C)=O)C[C@]4(C)C(=O)CC[C@@H]34)[C@]21C here?
A: 0.0003 µM

Q: Which K [17] does the source give for COc1ccc(C(=O)C(C(SCCN)c2ccc(OC)c(OC)c2)C(F)(F)F)c(OC)c1 (stereo not given) here?
A: 17 M⁻¹ s⁻¹

Q: What does the source list for CCN1C(=O)C=CC1=O [N-ETHYLMALEIMIDE]?
A: K [18]: 3750 M⁻¹ s⁻¹; IC50 [19]: 46.8 µM

Q: Which Ke [16] does the source give for CC1C(=O)CCC1Sc1ccccc1 (stereo not given) here?
A: 1.28 M⁻¹

— ChEMBL document CHEMBL4024702, “Covalent Modifiers: A Chemical Perspective on the Reactivity of α,β-Unsaturated Carbonyls with Thiols via Hetero-Michael Addition Reactions” (J Med Chem, 2017)
